Measurements as given in paper PMC3335822 (PLoS ONE, 2012).

Columns and labels:
[1] = biological target: T1, Eya3(ED) (Mus musculus, UniProt P97480); test: pNPP hydrolysis by the catalytic domain of Eya3; format: biochemical; conditions: substrate pNPP 3.4 mM, pH 6, 30°C, 30 minutes
T1 construct: The catalytic domain (ED) of mouse Eyes Absent 3 (Eya3(223–510)) was purified; made in house
T1 sequence (P97480 223-510): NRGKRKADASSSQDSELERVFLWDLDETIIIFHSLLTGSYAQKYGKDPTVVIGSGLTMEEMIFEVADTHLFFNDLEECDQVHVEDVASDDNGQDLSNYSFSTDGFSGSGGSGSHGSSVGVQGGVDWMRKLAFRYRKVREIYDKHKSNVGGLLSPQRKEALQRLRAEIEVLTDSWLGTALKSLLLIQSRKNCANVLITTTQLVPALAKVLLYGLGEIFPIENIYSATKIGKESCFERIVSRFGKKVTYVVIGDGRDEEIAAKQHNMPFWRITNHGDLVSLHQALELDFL
Description: (§1) The catalytic domain (ED) of mouse Eyes Absent 3 (Eya3(223–510)) was purified as described before. Human Eyes Absent 3 isoform 2 (representing the major species identified in human cell lines by mass spectrometry and residues 127–573 of NM_001990, isoform 1) was sub-cloned into pDEST565 to express a poly-histidine- Glutathione-S-transferase (His-GST) tagged fusion protein with a TVMV protease site. The protein was purified by glutathione-S-transferase affinity chromatography followed by TVMV cleavage, Ni-NTA chromatography, and finally size exclusion chromatography.
The NCI Diversity Set II was obtained from the NCI in 96-well trays from the NIH Molecular Libraries Program and stored as 10 mM stocks in DMSO. An initial manual screen was conducted using the previously described p-nitrophenylphosphate assay and mouse Eya3(223–510) in a reaction mixture containing 20 mM MES pH 6, 2 mM MgCl2, 125 μM inhibitor, 3.4 mM para-nitrophenol phosphate (pNPP) and 0.01 μg/µL enzyme.
(§2) Compounds were dissolved in DMSO and diluted as needed. […] Reactions were incubated at 30°C for 30 minutes and quenched with 100 mM EDTA pH 10. IC50 values were then calculated directly from regression curves using PRISM. All reported values are the mean of two independent experiments.

[2] = biological target: T2, human EYA3 (Homo sapiens, UniProt Q99504); test: pNPP hydrolysis by full-length EYA3; format: biochemical; conditions: full-length human EYA3, substrate pNPP
T2 construct: residues 127–573 of NM_001990, isoform 1; His-GST (poly-histidine, glutathione-S-transferase) with TVMV protease site (cleaved yes); made in house
T2 sequence (Q99504 127-573): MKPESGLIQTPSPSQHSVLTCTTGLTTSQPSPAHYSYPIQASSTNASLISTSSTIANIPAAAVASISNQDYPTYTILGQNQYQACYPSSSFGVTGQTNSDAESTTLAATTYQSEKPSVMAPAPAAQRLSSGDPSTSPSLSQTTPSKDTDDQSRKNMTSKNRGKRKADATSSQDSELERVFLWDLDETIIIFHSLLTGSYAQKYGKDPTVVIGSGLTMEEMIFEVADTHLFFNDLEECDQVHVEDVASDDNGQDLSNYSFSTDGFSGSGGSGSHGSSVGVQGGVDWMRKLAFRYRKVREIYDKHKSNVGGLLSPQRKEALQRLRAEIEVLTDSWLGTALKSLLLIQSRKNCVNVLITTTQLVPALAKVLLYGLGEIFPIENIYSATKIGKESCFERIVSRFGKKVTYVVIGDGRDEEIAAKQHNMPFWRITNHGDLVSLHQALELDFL
Description: as §1, with “chromatography. […]” for “chromatography.”
as §2

[3] = biological target: T3, PTP1B (Homo sapiens, UniProt P18031); test: pNPP hydrolysis by PTP1B; format: biochemical; conditions: for IC50: substrate pNPP
T3 construct: made in house
T3 sequence (P18031 1-435): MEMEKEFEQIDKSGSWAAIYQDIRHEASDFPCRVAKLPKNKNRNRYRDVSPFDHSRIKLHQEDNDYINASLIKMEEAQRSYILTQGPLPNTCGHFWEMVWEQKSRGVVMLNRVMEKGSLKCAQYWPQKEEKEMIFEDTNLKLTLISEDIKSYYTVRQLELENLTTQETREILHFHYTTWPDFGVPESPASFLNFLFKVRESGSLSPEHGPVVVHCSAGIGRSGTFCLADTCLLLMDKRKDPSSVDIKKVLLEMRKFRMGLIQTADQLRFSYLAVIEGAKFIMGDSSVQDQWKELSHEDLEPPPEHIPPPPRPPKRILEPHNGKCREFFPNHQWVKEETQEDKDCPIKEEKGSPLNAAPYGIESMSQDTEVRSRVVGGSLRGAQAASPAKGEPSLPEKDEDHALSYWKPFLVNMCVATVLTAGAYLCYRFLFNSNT
Experimental: The catalytic domain of human Eyes Absent 2 was similarly sub-cloned as a poly-histidine fusion construct in the vector pDEST-527. Fusion protein was purified by Ni-NTA chromatography and followed by size-exclusion chromatography over a Superdex-75 column. The relative purity of protein samples was determined using SDS-PAGE. PTP1B was purified as described previously.
as §2

[4] = test system: MCF10A-EYA2 cells; test: Transwell migration of MCF10A cells over-expressing EYA2; format: cell-based; conditions: 7.5 μM
Experimental: (§3) Human umbilical vein endothelial cells (HUVECs) were purchased from Lonza (Walkersville, MD) and maintained in the endothelial cell growth medium (PromoCell, Heidelberg, Germany), under a 5% CO2 atmosphere. MCF10A cells from ATCC were stably transfected with either pcDNA 3.2/V5-DEST (vector control), V5-EYA2 or V5-EYA2(mut). Transwell migration experiments were performed as previously described.

[5] = test system: HUVECs; test: HUVEC transwell migration; format: cell-based, human; conditions: 5 μM
Experimental: as §3

[6] = test system: HUVECs; test: HUVEC tubulogenesis assay on Matrigel; format: cell-based, human; conditions: up to 7.5 μM
Experimental: Tubulogenesis assays were performed in 15-well micro-slide (ibidi LLC, Verona WI), using growth factor-reduced matrigel (BD Bioscience, Billerica, MA). The matrix was prepared by loading 10 μl of matrigel in each micro-slide well and allowing it to solidify for 30 minutes at 37°C. HUVECs were trypsinized and resuspended at 100,000 cell/ml in EBM +2.5% FBS. 50 μl (5,000 cell) were loaded on top of the solidified matrigel and the preparation was incubated for 20 hours at 37°C in a humidified incubator in a 5% CO2 atmosphere. Bright field images were taken using an inverted microscope at 2.5× magnification, which allowed imaging of the whole well in two pictures that were later merged in Photoshop. Tubular structures were traced and counted using NeuroJ (NIH, USA). In experiments with inhibitor, the inhibitor was added to the cell suspension before loading. Each sample was loaded in triplicate, and each treatment was repeated for reproducibility.

[7] = test system: mouse aortic rings; test: Mouse aortic ring assay (ex vivo sprouting angiogenesis, VEGF-stimulated); conditions: 5 μM, 10 days
Experimental: The preparation of rat collagen and the aortic ring assay were carried out as previously described, [50]. Mice were 4 to 6 week old female C57BL/6, and aortic ring explants were cultured at 37°C in a humidified incubator under a 5% CO2 atmosphere.
Each inhibitor was serially diluted (between 0.25 mM and 7.5 mM) to stocks of 1000× the working concentrations in sterile 100% DMSO in order to achieve an equal final concentration of DMSO (0.1% v/v) in all culture conditions. For the experiments, the compounds were diluted in EBM containing 2.5% FBS, penicillin/streptomycin and 20 ng/ml VEGF165 (R&D Systems, Minneapolis, MN). Each compound was applied from the first day of culture over a 10-day period with medium change every two days. In all experiments, the vehicle (DMSO, 0.1%) was used as control. The sprouting density was derived from counting the number of branches per ring, and the extent of angiogenic sprouting was estimated by measuring the total surface area covered by the vessels.

[8] = test system: zebrafish embryos; test: Analysis of zebrafish vasculature, Tg(kdrl:EGFP) embryos; format: in vivo; conditions: exposure from about 5 hpf, analysis at 28–30 hpf
Experimental: Tg(kdrl:EGFP)^s843 zebrafish line was used for vascular analysis. Embryos were maintained in fish water until the 50% epiboly stage (5.25 hpf) and were transferred into wells of 24-well plate containing the inhibitors in fish water. All incubation was performed at 28.5°C. The analysis for vascular defects was performed at the 28–30 hpf stages, and embryos were imaged using a fluorescence microscope.

[9] = cited from earlier work

| SMILES | IC50 [1] | IC50 [2] | IC50 [3] | effect on migration of MCF10A(EYA2) cells [4] | effect on HUVEC cell motility [5] | effect on tubulogenesis, in words [6] | effect on sprouting of aortic rings [7] | effect on the developing vasculature [8] | selectivity EYA3 versus PTP1B, in words ([3]; pNPP hydrolysis) | half-life [9] |
| --- | --- | --- | --- | --- | --- | --- | --- | --- | --- | --- |
| COc1ccc(C(=O)c2coc3ccc(O)cc23)cc1 [Compound 1e] | > 150 µM | > 150 µM | > 150 µM | – | – | – | – | – | – | – |
| CC(=O)c1cc(Br)c(O)c(Br)c1O [Compound 1i] | > 150 µM | > 150 µM | > 150 µM | – | – | – | – | – | – | – |
| CC(=O)c1c(C)oc2ccc(O)cc12 [Compound 1g] | > 150 µM | > 150 µM | > 150 µM | – | – | – | – | – | – | – |
| O=C(c1ccc(F)cc1)c1coc2ccc(O)cc12 [Compound 1d] | > 150 µM | > 150 µM | > 150 µM | – | – | – | – | – | – | – |
| CCCCc1oc2ccccc2c1C(=O)c1ccc(O)cc1 [Compound 1b] | – | – | 71.4 µM | significantly inhibited cell migration | attenuated HUVEC cell motility | effective only at the highest concentrations tested (7.5 μM) | shorter sprouts and significantly lower microvascular density | reduced the number of intersegmental vessels, but were less potent | – | – |
| COc1ccc(OC)c(C(=O)c2coc3ccc(O)cc23)c1 [Compound 1f] | > 150 µM | > 150 µM | 102 µM | – | – | – | – | – | – | – |
| O=C(c1cc2ccccc2o1)c1coc2ccc(O)cc12 [Compound 1c] | > 150 µM | > 150 µM | 11.8 µM | had no effect on cell motility | – | – | negligible effect | no effect on the vasculature | preferentially inhibited PTP1B | – |
| CCCCC(=O)c1ccc(O)cc1 [Compound 1j] | > 150 µM | > 150 µM | > 150 µM | – | – | – | – | – | – | – |
| CCc1oc2cc(O)ccc2c1C(=O)c1cc(Br)c(O)c(Br)c1 [6-hydroxybenzbromarone] | – | – | – | – | – | – | – | – | – | 30 h |
| COc1ccc(CC(=O)c2ccc(O)cc2O)cc1 [Compound 1h] | > 150 µM | > 150 µM | > 150 µM | – | – | – | – | – | – | – |
